This passage reports MIC and ED50 results from patent publication US4820694A, “Modifications of 3-O-demethylmycinose in macrocin and lactenocin” (priority 1986, dated 1989).

In brackets after ≈: the same amount, converted by molar mass. Where two headings read alike, the source gives them in different places.

In one experiment the test system is Escherichia coli EC14. Description: standard agar-dilution MIC assay. It is filed as cell-based. On the procedure:
(§1) The MIC's in Table III were determined by standard agar-dilution assays. The MIC's in Table IV were obtained using conventional brothdilution microtiter tests.

In experiment [1] the test system is Haemophilus influenzae 76. In words: standard agar-dilution MIC assay. The following applies: Haemophilus influenzae, 76. It is filed as cell-based. The protocol:
as §1

Experiment [2] relates to Haemophilus influenzae C.L. Description: standard agar-dilution MIC assay. Type of experiment: cell-based. The settings on record: Haemophilus influenzae. On the procedure: as §1
Experiment [3] concerns Klebsiella pneumoniae X68. In words: standard agar-dilution MIC assay. The following applies: Klebsiella pneumoniae, X68. It is filed as cell-based. The protocol: as §1
The test system of experiment [4] is Pseudomonas aeruginosa X239. Description: standard agar-dilution MIC assay. It is filed as cell-based. The settings on record: Pseudomonas aeruginosa, X239. The protocol: as §1
In experiment [5] the test system is Staphylococcus aureus V41. In words: standard agar-dilution MIC assay. Type of experiment: cell-based. The following applies: Staphylococcus aureus, V41. On the procedure:
as §1

Experiment [6] concerns Staphylococcus aureus X1.1. Description: standard agar-dilution MIC assay. The settings on record: Staphylococcus aureus, X1.1. Type of experiment: cell-based. On the procedure: as §1
Experiment [7] relates to Staphylococcus aureus X400. In words: standard agar-dilution MIC assay. It is filed as cell-based. The settings on record: Staphylococcus aureus, X400. The protocol:
as §1

Experiment [8] concerns Staphylococcus epidermidis EP12. In words: standard agar-dilution MIC assay. Type of experiment: cell-based. On the procedure:
as §1

The test system of experiment [9] is Staphylococcus epidermidis EPI1. In words: standard agar-dilution MIC assay. The following applies: Staphylococcus epidermidis, EPI1. Type of experiment: cell-based. On the procedure: as §1
The subject of experiment [10] is Streptococcus Group D 9960. Description: standard agar-dilution MIC assay. Type of experiment: cell-based. The following applies: GROUPD9960, read-out: MIC. The protocol:
as §1

The subject of experiment [11] is Streptococcus Group D X66. In words: standard agar-dilution MIC assay. The following applies: read-out: MIC. Type of experiment: cell-based. The protocol: as §1
Experiment [12] concerns Streptococcus pyogenes C203. In words: standard agar-dilution MIC assay. Type of experiment: cell-based. The following applies: Streptococcus pyogenes, C203. The protocol: as §1
The subject of experiment [13] is Staphylococcus aureus S13E. Description: microbe, parasite or virus in culture. Type of experiment: cell-based. The following applies: Staphylococcus aureus, S13E. The protocol:
as §1

Experiment [14] deals with Streptococcus pneumoniae Park I. In words: microbe, parasite or virus in culture. It is filed as cell-based. The following applies: Streptococcus pneumoniae. The protocol:
as §1

Experiment [15] has as its system Bordetella bronchiseptica. In words: broth-dilution microtiter MIC test. Type of experiment: cell-based. The settings on record: Bordetella bronchiseptica. The protocol:
as §1

The test system of experiment [16] is Mycoplasma gallisepticum 15E. In words: broth-dilution microtiter MIC test. It is filed as cell-based. The settings on record: Mycoplasmoides gallisepticum, 15E. The protocol:
as §1

Experiment [17] concerns Mycoplasma gallisepticum 29C. In words: broth-dilution microtiter MIC test. Type of experiment: cell-based. The following applies: Mycoplasmoides gallisepticum, 29C. On the procedure:
as §1

The subject of experiment [18] is Mycoplasma gallisepticum 36H. Description: broth-dilution microtiter MIC test. Type of experiment: cell-based. The following applies: Mycoplasmoides gallisepticum, 36H. On the procedure: as §1
A further experiment has as its system Mycoplasma hyorhinis 29E. In words: broth-dilution microtiter MIC test. Type of experiment: cell-based. The following applies: Mycoplasma, 29E. The protocol:
as §1

In a further experiment the test system is Mycoplasma synoviae 40A. In words: broth-dilution microtiter MIC test. The following applies: Mycoplasmopsis synoviae, 40A. It is filed as cell-based. The protocol: as §1
The test system of experiment [19] is Pasteurella hemolytica 22C. In words: broth-dilution microtiter MIC test. The settings on record: Pasteurella, 22C. It is filed as cell-based. On the procedure: as §1
The subject of experiment [20] is Pasteurella hemolytica 23C. Description: broth-dilution microtiter MIC test. It is filed as cell-based. The following applies: Pasteurella, 23C. The protocol: as §1
Experiment [21] has as its system Pasteurella hemolytica 41D. In words: broth-dilution microtiter MIC test. Type of experiment: cell-based. The settings on record: Pasteurella, 41D. The protocol: as §1
Experiment [22] concerns Pasteurella multocida 17E. Description: broth-dilution microtiter MIC test. Type of experiment: cell-based. The settings on record: Pasteurella multocida, 17E. On the procedure:
as §1

Experiment [23] concerns Pasteurella multocida 22A. In words: broth-dilution microtiter MIC test. It is filed as cell-based. The settings on record: Pasteurella multocida, 22A. The protocol:
as §1

In experiment [24] the test system is Pasteurella multocida 40G. In words: broth-dilution microtiter MIC test. Type of experiment: cell-based. The settings on record: Pasteurella multocida, 40G. On the procedure:
as §1

Experiment [25] relates to Pasteurella multocida 60A. Description: broth-dilution microtiter MIC test. Type of experiment: cell-based. The following applies: Pasteurella multocida, 60A. On the procedure:
as §1

The test system of experiment [26] is Pasteurella multocida 68C. In words: broth-dilution microtiter MIC test. It is filed as cell-based. The following applies: Pasteurella multocida, 68C. On the procedure: as §1
Experiment [27] deals with Staphylococcus aureus 19C. Description: broth-dilution microtiter MIC test. Type of experiment: cell-based. The settings on record: Staphylococcus aureus, 19C. The protocol: as §1
A further experiment has as its system Streptococcus sp. 19F. In words: broth-dilution microtiter MIC test. Type of experiment: cell-based. The settings on record: Streptococcus, SP.19F. The protocol: as §1
Experiment [28] has as its system Streptococcus pyogenes C203. In words: protection of mice experimentally infected with S. pyogenes C203. Type of experiment: in vivo. The settings on record: C203, sc. An outline of the steps: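 Activity is given as ED50, the mg/kg dose (×2) protecting half of the mice infected with S. pyogenes C203. Compound was dosed 1 and 4 h after infection.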
The test system of experiment [29] is Staphylococcus epidermidis 222. In words: standard agar-dilution MIC assay. It is filed as cell-based. The following applies: Staphylococcus epidermidis, 222. The protocol: as §1
Experiment [30] has as its system Streptococcus Group D 2041. In words: standard agar-dilution MIC assay. The following applies: GROUPD2041. Type of experiment: cell-based. The protocol:
as §1

The mark [31] stands for this setting: agar-dilution, Ampicillin-resistant strain, read-out: MIC.
The mark [32] stands for this setting: agar-dilution, Ampicillin-sensitive strain, read-out: MIC.

As for `CCC1OC(=O)CC(O)C(C)C(OC2OC(C)C(OC3CC(C)(O)C(O)C(C)O3)C(N(C)C)C2OC(C)=O)C(CC=O)CC(C)C(=O)C=CC(C)=CC1COC1OC(C)C(OC(C)=O)C(OC(=O)Cc2ccccc2)C1OC` (centres unmarked) [Compound 17, 2',4'"-Di-O-acetyl-3'"-O-phenylacetylmacrocin], the MIC was more than 128 µg/mL in the experiment with Escherichia coli EC14; more than 128 µg/mL in experiment [1]; more than 128 µg/mL in [2]; more than 128 µg/mL in experiment [3]; more than 128 µg/mL in [4]; 2 µg/mL (≈ 1.81 µM) in [5]. For the same compound, the MIC in [6] came out at 2 µg/mL (≈ 1.81 µM); in experiment [7] it was 4 µg/mL (≈ 3.62 µM); in [8], 2 µg/mL (≈ 1.81 µM); in experiment [9], 4 µg/mL (≈ 3.62 µM); in experiment [10], 2 µg/mL (≈ 1.81 µM); in experiment [11], 2 µg/mL (≈ 1.81 µM). Moreover, the MIC was 1 µg/mL (≈ 0.906 µM) in experiment [12]; 4 µg/mL (≈ 3.62 µM) in [13]; 1 µg/mL (≈ 0.906 µM) in experiment [14]; more than 50 µg/mL in [15]; 12.5 µg/mL (≈ 11.3 µM) in [16]; 0.39 µg/mL (≈ 0.353 µM) in experiment [17]. For the same compound, the MIC in experiment [18] is 12.5 µg/mL (≈ 11.3 µM); against Mycoplasma hyorhinis 29E, 3.12 µg/mL (≈ 2.83 µM); with Mycoplasma synoviae 40A it was 1.56 µg/mL (≈ 1.41 µM); in experiment [19], more than 50 µg/mL; in [20] it was more than 50 µg/mL; in [21], more than 50 µg/mL. Also, the MIC in experiment [22] is more than 50 µg/mL; in experiment [23], more than 50 µg/mL; in experiment [24] it was more than 50 µg/mL; in experiment [25] it was more than 50 µg/mL; in [26], more than 50 µg/mL; in [27], 3.12 µg/mL (≈ 2.83 µM). The MIC against Streptococcus sp. 19F is 1.56 µg/mL (≈ 1.41 µM). Moreover, the ED50 (in general, the dose at which the effect has come halfway, by size or by number of responders) in [28] was more than 10 mg/kg.
As to `CCC1OC(=O)CC(O)C(C)C(OC2OC(C)C(O)C(N(C)C)C2O)C(CCOc2ccccc2)CC(C)C(=O)C=CC(C)=CC1COC1OC(C)C(OC(C)=O)C(OC(C)=O)C1OC` (centres unmarked) [Compound 41, 3",4"-Di-O-acetyl-20-DH-20-O-phenyl-lactenocin], the MIC with Escherichia coli EC14 (agar-dilution, read-out: MIC) is more than 128 µg/mL; in experiment [1] (setting [31]), more than 128 µg/mL; in experiment [2] (setting [32]), more than 128 µg/mL; in [3] (agar-dilution, read-out: MIC), more than 128 µg/mL; in [4] (agar-dilution, read-out: MIC), more than 128 µg/mL; in experiment [5], 16 µg/mL (≈ 17.4 µM). For the same compound, the MIC amounted to 16 µg/mL (≈ 17.4 µM) in experiment [6]; 16 µg/mL (≈ 17.4 µM) in experiment [7]; 8 µg/mL (≈ 8.69 µM) in [29]; 16 µg/mL (≈ 17.4 µM) in [9]; 128 µg/mL (≈ 139 µM) in [30] (agar-dilution, read-out: MIC); 64 µg/mL (≈ 69.6 µM) in [11]. The MIC in [12], in experiment [13] and in [14] was 16 µg/mL (≈ 17.4 µM) in each case.
In the case of `CCC1OC(=O)CC(O)C(C)C(OC2OC(C)C(OC(C)=O)C(N(C)C)C2OC(C)=O)C(CCOc2ccccc2)CC(C)C(=O)C=CC(C)=CC1COC1OC(C)C=CC1OC` (centres unmarked) [Compound 42, 2',4'-Di-O-acetyl-3",4"-di(dehydrodeoxy)-20-DH-20-O-phenyl-lactenocin], the MIC was more than 128 µg/mL in the experiment with Escherichia coli EC14 (agar-dilution, read-out: MIC); more than 128 µg/mL in experiment [1] (setting [31]); more than 128 µg/mL in experiment [2] (setting [32]); more than 128 µg/mL in experiment [3] (agar-dilution, read-out: MIC); more than 128 µg/mL in experiment [4] (agar-dilution, read-out: MIC); 0.5 µg/mL (≈ 0.564 µM) in experiment [5]. The MIC in experiment [6] came out at 1 µg/mL (≈ 1.13 µM); in experiment [7] it was 0.5 µg/mL (≈ 0.564 µM); in [29], 0.5 µg/mL (≈ 0.564 µM); in [9] it was 1 µg/mL (≈ 1.13 µM); in [30] it was 4 µg/mL (≈ 4.51 µM); in [11] it was 4 µg/mL (≈ 4.51 µM). Moreover, the MIC in experiment [12] was 1 µg/mL (≈ 1.13 µM); in experiment [13] it was 4 µg/mL (≈ 4.51 µM); in experiment [14], 1 µg/mL (≈ 1.13 µM).
